Laboratory results from PubChem BioAssay (NCI).
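Five concentrations, 48 hours, 96-well plates. Here, GI50 denotes the concentration required for 50% inhibition of growth. TGI: concentration producing complete growth inhibition.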

Columns and labels:
Assay in all cases: growth of human tumour cells (NCI), 48 h
MCF7 breast = system: MCF7 breast
SK-MEL-5 melanoma = system: SK-MEL-5 melanoma
NCI-H226 lung = system: NCI-H226 lung
SN12C renal = system: SN12C renal
ACHN renal = system: ACHN renal
SF-295 CNS = system: SF-295 CNS
SR leukemia = system: SR leukemia
RPMI-8226 leukemia = system: RPMI-8226 leukemia
UACC-62 melanoma = system: UACC-62 melanoma
HCT-15 colon = system: HCT-15 colon
BT-549 breast = system: BT-549 breast
A549 NSCLC = system: A549 NSCLC
MDA-MB-231 breast = system: MDA-MB-231 breast
SK-MEL-2 melanoma = system: SK-MEL-2 melanoma
HOP-62 NSCLC = system: HOP-62 NSCLC
CAKI-1 renal = system: CAKI-1 renal
SNB-75 CNS = system: SNB-75 CNS
DU-145 prostate = system: DU-145 prostate
M14 melanoma = system: M14 melanoma
A498 renal = system: A498 renal
SW-620 colon = system: SW-620 colon
NCI/ADR-RES ovarian = system: NCI/ADR-RES ovarian
HS 578T breast = system: HS 578T breast
T-47D breast = system: T-47D breast
SK-MEL-28 melanoma = system: SK-MEL-28 melanoma
HCT-116 colon = system: HCT-116 colon
IGROV1 ovarian = system: IGROV1 ovarian
UO-31 renal = system: UO-31 renal
MOLT-4 leukemia = system: MOLT-4 leukemia
OVCAR-8 ovarian = system: OVCAR-8 ovarian
SNB-19 CNS = system: SNB-19 CNS
PC-3 prostate = system: PC-3 prostate
EKVX NSCLC = system: EKVX NSCLC
SK-OV-3 ovarian = system: SK-OV-3 ovarian
SF-539 CNS = system: SF-539 CNS
HCC-2998 colon = system: HCC-2998 colon
MDA-N = system: MDA-N
K-562 leukemia = system: K-562 leukemia
UACC-257 melanoma = system: UACC-257 melanoma
RXF 393 renal = system: RXF 393 renal
NCI-H23 lung = system: NCI-H23 lung
OVCAR-4 ovarian = system: OVCAR-4 ovarian
OVCAR-3 ovarian = system: OVCAR-3 ovarian
KM12 colon = system: KM12 colon
COLO 205 colon = system: COLO 205 colon
MALME-3M melanoma = system: MALME-3M melanoma
NCI-H460 lung = system: NCI-H460 lung
786-0 renal = system: 786-0 renal
U251 CNS = system: U251 CNS
HOP-92 NSCLC = system: HOP-92 NSCLC
SF-268 CNS = system: SF-268 CNS
TK-10 renal = system: TK-10 renal
LOX IMVI melanoma = system: LOX IMVI melanoma
MDA-MB-435 = system: MDA-MB-435
OVCAR-5 ovarian = system: OVCAR-5 ovarian
NCI-H522 lung = system: NCI-H522 lung
HT29 colon = system: HT29 colon

Compound `O=[N+]([O-])[O][Sn]([O][Sn]([O][N+](=O)[O-])([c]1ccccc1)[c]1ccccc1)([c]1ccccc1)[c]1ccccc1` has a GI50 (MCF7 breast) of over 100 µM, a TGI (MCF7 breast) of over 100 µM and a GI50 (SK-MEL-5 melanoma) of over 100 µM. It also gave a TGI (SK-MEL-5 melanoma) of over 100 µM, a GI50 (NCI-H226 lung) of over 100 µM and a TGI (NCI-H226 lung) of over 100 µM. For the same compound, the GI50 (SN12C renal) was over 100 µM, the TGI (SN12C renal) was over 100 µM and the GI50 (ACHN renal) was over 100 µM. It also gave a TGI (ACHN renal) of over 100 µM, a GI50 (SF-295 CNS) of over 100 µM and a TGI (SF-295 CNS) of over 100 µM. For the same compound, the GI50 (SR leukemia) was over 100 µM, the TGI (SR leukemia) was over 100 µM and the GI50 (RPMI-8226 leukemia) was over 100 µM. It also gave a TGI (RPMI-8226 leukemia) of over 100 µM, a GI50 (UACC-62 melanoma) of 53.6 µM and a TGI (UACC-62 melanoma) of over 100 µM. It also gave a GI50 (HCT-15 colon) of over 100 µM, a TGI (HCT-15 colon) of over 100 µM and a GI50 (BT-549 breast) of over 100 µM. For the same compound, the TGI (BT-549 breast) was over 100 µM, the GI50 (A549 NSCLC) was over 100 µM and the TGI (A549 NSCLC) was over 100 µM. It also gave a GI50 (MDA-MB-231 breast) of over 100 µM, a TGI (MDA-MB-231 breast) of over 100 µM and a GI50 (SK-MEL-2 melanoma) of over 100 µM. It also gave a TGI (SK-MEL-2 melanoma) of over 100 µM, a GI50 (HOP-62 NSCLC) of over 100 µM and a TGI (HOP-62 NSCLC) of over 100 µM. For the same compound, the GI50 (CAKI-1 renal) was over 100 µM, the TGI (CAKI-1 renal) was over 100 µM and the GI50 (SNB-75 CNS) was over 100 µM. The TGI (SNB-75 CNS) was over 100 µM, the GI50 (DU-145 prostate) was over 100 µM and the TGI (DU-145 prostate) was over 100 µM. For the same compound, the GI50 (M14 melanoma) was over 100 µM, the TGI (M14 melanoma) was over 100 µM and the GI50 (A498 renal) was over 100 µM. The TGI (A498 renal) was over 100 µM, the GI50 (SW-620 colon) was over 100 µM and the TGI (SW-620 colon) was over 100 µM. The GI50 (NCI/ADR-RES ovarian) was over 100 µM, the TGI (NCI/ADR-RES ovarian) was over 100 µM and the GI50 (HS 578T breast) was 47.1 µM. For the same compound, the TGI (HS 578T breast) was over 100 µM, the GI50 (T-47D breast) was over 100 µM and the TGI (T-47D breast) was over 100 µM. The GI50 (SK-MEL-28 melanoma) was over 100 µM, the TGI (SK-MEL-28 melanoma) was over 100 µM and the GI50 (HCT-116 colon) was over 100 µM. The TGI (HCT-116 colon) was over 100 µM, the GI50 (IGROV1 ovarian) was 72.8 µM and the TGI (IGROV1 ovarian) was over 100 µM. For the same compound, the GI50 (UO-31 renal) was over 100 µM, the TGI (UO-31 renal) was over 100 µM and the GI50 (MOLT-4 leukemia) was over 100 µM. For the same compound, the TGI (MOLT-4 leukemia) was over 100 µM, the GI50 (OVCAR-8 ovarian) was over 100 µM and the TGI (OVCAR-8 ovarian) was over 100 µM. It also gave a GI50 (SNB-19 CNS) of over 100 µM, a TGI (SNB-19 CNS) of over 100 µM and a GI50 (PC-3 prostate) of 63.2 µM. For the same compound, the TGI (PC-3 prostate) was over 100 µM, the GI50 (EKVX NSCLC) was over 100 µM and the TGI (EKVX NSCLC) was over 100 µM. The GI50 (SK-OV-3 ovarian) was over 100 µM, the TGI (SK-OV-3 ovarian) was over 100 µM and the GI50 (SF-539 CNS) was over 100 µM. The TGI (SF-539 CNS) was over 100 µM, the GI50 (HCC-2998 colon) was over 100 µM and the TGI (HCC-2998 colon) was over 100 µM. The GI50 (MDA-N) was over 100 µM, the TGI (MDA-N) was over 100 µM and the GI50 (K-562 leukemia) was over 100 µM. For the same compound, the TGI (K-562 leukemia) was over 100 µM, the GI50 (UACC-257 melanoma) was over 100 µM and the TGI (UACC-257 melanoma) was over 100 µM. The GI50 (RXF 393 renal) was over 100 µM, the TGI (RXF 393 renal) was over 100 µM and the GI50 (NCI-H23 lung) was over 100 µM. The TGI (NCI-H23 lung) was over 100 µM, the GI50 (OVCAR-4 ovarian) was over 100 µM and the TGI (OVCAR-4 ovarian) was over 100 µM. It also gave a GI50 (OVCAR-3 ovarian) of over 100 µM, a TGI (OVCAR-3 ovarian) of over 100 µM and a GI50 (KM12 colon) of over 100 µM. The TGI (KM12 colon) was over 100 µM, the GI50 (COLO 205 colon) was over 100 µM and the TGI (COLO 205 colon) was over 100 µM. The GI50 (MALME-3M melanoma) was 79.3 µM, the TGI (MALME-3M melanoma) was over 100 µM and the GI50 (NCI-H460 lung) was over 100 µM. The TGI (NCI-H460 lung) was over 100 µM, the GI50 (786-0 renal) was over 100 µM and the TGI (786-0 renal) was over 100 µM. It also gave a GI50 (U251 CNS) of over 100 µM, a TGI (U251 CNS) of over 100 µM and a GI50 (HOP-92 NSCLC) of 38.6 µM. For the same compound, the TGI (HOP-92 NSCLC) was over 100 µM, the GI50 (SF-268 CNS) was over 100 µM and the TGI (SF-268 CNS) was over 100 µM. It also gave a GI50 (TK-10 renal) of over 100 µM, a TGI (TK-10 renal) of over 100 µM and a GI50 (LOX IMVI melanoma) of 83.4 µM. The TGI (LOX IMVI melanoma) was over 100 µM, the GI50 (MDA-MB-435) was over 100 µM and the TGI (MDA-MB-435) was over 100 µM. It also gave a GI50 (OVCAR-5 ovarian) of over 100 µM, a TGI (OVCAR-5 ovarian) of over 100 µM and a GI50 (NCI-H522 lung) of 23.1 µM. It also gave a TGI (NCI-H522 lung) of over 100 µM, a GI50 (HT29 colon) of over 100 µM and a TGI (HT29 colon) of over 100 µM.
